Measurements published in PubChem BioAssay AID330 (DTP/NCI, 2004).
Where “and” joins values, the source holds several entries; their conditions need not be identical. Identical values can stand only once. Toxic doses and inconclusive results are not listed. How the source made its calls: active means survival T/C of 150% or more; inactive means T/C below 125% in these data.

Tested on: P388 leukemia ip, CD2F1 mice, survival T/C
Test: NCI In Vivo Anticancer Drug Screen. Data for tumor model P388 Leukemia (intraperitoneal) in CD2F1 (CDF1) mice
Conditions: endpoint: median survival time, higher = longer survival
Procedure, shortened: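 Mice carrying the transplanted tumor received test compound or vehicle. Survival was recorded in each group, and the value is the treated-group measurement divided by that of the vehicle-treated control group.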

[1] = dose: 50.0 mg/kg/injection, schedule: Q04DX003 (ip), vehicle: saline with Tween-80
[2] = dose: 50.0 mg/kg/injection, schedule: Q01DX005 (ip), vehicle: Klucel (hydroxypropylcellulose) (HPC)
[3] = dose: 100.0 mg/kg/injection, schedule: Q01DX005 (ip), vehicle: Klucel (hydroxypropylcellulose) (HPC)
[4] = dose: 200.0 mg/kg/injection, schedule: Q01DX005 (ip), vehicle: Klucel (hydroxypropylcellulose) (HPC)
[5] = dose: 60.0 mg/kg/injection, schedule: Q01DX005 (ip), vehicle: saline with Tween-80
[6] = dose: 120.0 mg/kg/injection, schedule: Q01DX005 (ip), vehicle: saline with Tween-80
[7] = dose: 240.0 mg/kg/injection, schedule: Q01DX005 (ip), vehicle: saline with Tween-80
[8] = dose: 25.0 mg/kg/injection, schedule: Q01DX009 (ip), vehicle: saline with Tween-80
[9] = dose: 50.0 mg/kg/injection, schedule: Q01DX009 (ip), vehicle: saline with Tween-80
[10] = dose: 100.0 mg/kg/injection, schedule: Q01DX009 (ip), vehicle: saline with Tween-80
[11] = dose: 50.0 mg/kg/injection, schedule: Q01DX005 (ip), vehicle: saline with Tween-80
[12] = dose: 100.0 mg/kg/injection, schedule: Q01DX005 (ip), vehicle: saline with Tween-80
[13] = dose: 200.0 mg/kg/injection, schedule: Q01DX005 (ip), vehicle: saline with Tween-80
[14] = dose: 50.0 mg/kg/injection, schedule: Q01DX009 (ip), vehicle: suspension in saline
[15] = dose: 100.0 mg/kg/injection, schedule: Q01DX009 (ip), vehicle: suspension in saline
[16] = dose: 200.0 mg/kg/injection, schedule: Q01DX009 (ip), vehicle: suspension in saline

Measured: T/C

COc1cc(-c2ccc(O)cc2)c(OC)c(O)c1-c1ccc(O)c(O)c1
inactive: dose: 0.6 mg/kg/injection, schedule: Q01DX009 (ip), vehicle: saline 100 % of control | dose: 1.2 mg/kg/injection, schedule: Q01DX009 (ip), vehicle: saline 95 % of control | dose: 10.0 micrograms/kg/injection, schedule: Q01DX009 (ip), vehicle: saline with Tween-80 111 % of control | dose: 20.0 micrograms/kg/injection, schedule: Q01DX009 (ip), vehicle: saline with Tween-80 105 % of control | dose: 40.0 micrograms/kg/injection, schedule: Q01DX009 (ip), vehicle: saline with Tween-80 104 % of control | dose: 80.0 micrograms/kg/injection, schedule: Q01DX009 (ip), vehicle: saline with Tween-80 105 % of control

COc1cc(C=Nc2cccc(Cl)c2)ccc1N(CCCl)CCCl
active: dose: 25.0 mg/kg/injection, schedule: Q04DX003 (ip), vehicle: saline with Tween-80 172 % of control | [1] 181 % of control

CC(O)CC(O)CC1CCCO1 (configuration not stated)
inactive: dose: 12.5 mg/kg/injection, schedule: Q01DX005 (ip), vehicle: saline 98 % of control | dose: 25.0 mg/kg/injection, schedule: Q01DX005 (ip), vehicle: saline 97 % of control | dose: 50.0 mg/kg/injection, schedule: Q01DX005 (ip), vehicle: saline 98 % of control and 88 % of control

Cc1cc(Cl)c2cc3c(cc2n1)OCO3
inactive: [2] 106 % of control | [3] 104 % of control | [4] 98 % of control

O=c1[nH]c2cc(Cl)ccc2nc1C1=C(O)c2ccccc2C1
inactive: [5] 89 % of control | [6] 89 % of control | [7] 110 % of control

COc1ccc2[nH]cc(CC(NC(C)=O)C(=O)O)c2c1 (configuration not stated)
inactive: [2] 98 % of control | [3] 104 % of control | [4] 101 % of control

CCO[Si](CCSC(=O)N(CCCl)CCCl)(OCC)OCC
inactive: dose: 100.0 mg/kg/injection, schedule: Q04DX002 (ip), vehicle: saline with Tween-80 99 % of control | dose: 200.0 mg/kg/injection, schedule: Q04DX002 (ip), vehicle: saline with Tween-80 98 % of control | dose: 400.0 mg/kg/injection, schedule: Q04DX002 (ip), vehicle: saline with Tween-80 107 % of control

COC(=O)C(OC)(OC)C(O)c1ccccc1 (configuration not stated)
inactive: dose: 60.0 mg/kg/injection, schedule: Q01DX005 (ip), vehicle: saline 100 % of control | dose: 120.0 mg/kg/injection, schedule: Q01DX005 (ip), vehicle: saline 106 % of control | dose: 240.0 mg/kg/injection, schedule: Q01DX005 (ip), vehicle: saline 113 % of control

C/C(=C\Cl)CO
inactive: [8] 111 % of control | [9] 111 % of control | [10] 94 % of control

O=C1CCCN1C(=O)c1ccccc1
inactive: dose: 18.8 mg/kg/injection, schedule: Q01DX001 (ip), vehicle: saline sonified 105 % of control | dose: 37.5 mg/kg/injection, schedule: Q01DX001 (ip), vehicle: saline sonified 120 % of control | dose: 75.0 mg/kg/injection, schedule: Q01DX001 (ip), vehicle: saline sonified 105 % of control

COc1cc(NCCCCCCNC(C)C)c2nccc(C)c2c1
inactive: dose: 3.13 mg/kg/injection, schedule: Q01DX009 (ip), vehicle: saline 91 % of control | dose: 6.25 mg/kg/injection, schedule: Q01DX009 (ip), vehicle: saline 99 % of control | dose: 12.5 mg/kg/injection, schedule: Q01DX009 (ip), vehicle: saline 99 % of control

CC(C)CC(Nc1nncs1)Nc1nncs1
inactive: [5] 96 % of control | [6] 90 % of control | [7] 100 % of control

Cc1cc([N+](=O)[O-])c(Cl)cc1NS(=O)(=O)c1ccccc1
inactive: [1] 100 % of control | dose: 100.0 mg/kg/injection, schedule: Q04DX003 (ip), vehicle: saline with Tween-80 95 % of control

Cc1cc2c(c3c1C(=O)CC3)C(C)(C)CCC2(C)C
inactive: [11] 99 % of control | [12] 97 % of control | [13] 95 % of control

COC1/C=C/OC2(C)Oc3c(C)c(O)c4c(O)c(c(/C=N/N5C(C)CN(Cc6ccc(C(C)(C)C)cc6)CC5C)c(O)c4c3C2=O)NC(=O)/C(C)=C\C=C\C(C)C(O)C(C)C(O)C(C)C(OC(C)=O)C1C (configuration not stated)
inactive: [8] 119 % of control | dose: 25.0 mg/kg/injection, schedule: Q01DX009 (ip), vehicle: suspension in saline 104 % of control | [9] 102 % of control and 94 % of control | [14] 108 % of control | [10] 119 % of control | [15] 100 % of control | [16] 95 % of control

COc1cccc2c1C(=O)c1c(O)c3c(c(O)c1C2=O)C[C@@](O)(C(C)=O)C[C@@H]3OC1CC(N(C)C)C(O)C(C)O1 (some centres not stated)
inactive: dose: 0.25 mg/kg/injection, schedule: Q01DX009 (ip), vehicle: water 115 % of control | dose: 0.63 mg/kg/injection, schedule: Q04DX003 (ip), vehicle: water 115 % of control | dose: 1.25 mg/kg/injection, schedule: Q01DX001 (ip), vehicle: water 116 % of control | dose: 1.25 mg/kg/injection, schedule: Q04DX003 (ip), vehicle: water 100 % of control | dose: 2.5 mg/kg/injection, schedule: Q04DX003 (ip), vehicle: water 109 % of control | dose: 4.0 mg/kg/injection, schedule: Q01DX009 (ip), vehicle: water 98 % of control and 88 % of control | dose: 5.0 mg/kg/injection, schedule: Q04DX003 (ip), vehicle: water 104 % of control and 121 % of control | dose: 16.7 mg/kg/injection, schedule: Q04DX003 (ip), vehicle: water 93 % of control | dose: 20.0 mg/kg/injection, schedule: Q04DX003 (ip), vehicle: water 123 % of control | dose: 40.0 mg/kg/injection, schedule: Q04DX003 (ip), vehicle: water 114 % of control
active: dose: 0.5 mg/kg/injection, schedule: Q01DX009 (ip), vehicle: water 158 % of control | dose: 1.0 mg/kg/injection, schedule: Q01DX009 (ip), vehicle: water 171 % of control and 190 % of control | dose: 2.0 mg/kg/injection, schedule: Q01DX009 (ip), vehicle: water 200 % of control and 228 % of control | dose: 2.16 mg/kg/injection, schedule: Q04DX003 (ip), vehicle: water 151 % of control | dose: 6.0 mg/kg/injection, schedule: Q04DX003 (ip), vehicle: water 170 % of control | dose: 10.0 mg/kg/injection, schedule: Q01DX001 (ip), vehicle: water 154 % of control | dose: 10.0 mg/kg/injection, schedule: Q04DX003 (ip), vehicle: water 199 % of control | dose: 20.0 mg/kg/injection, schedule: Q01DX001 (ip), vehicle: water 169 % of control

FC(F)(F)c1ccccc1NC(=S)SCc1ccc(Cl)cc1
inactive: [14] 104 % of control | [15] 101 % of control | [16] 108 % of control

C[Si]1(C)O[Si](C)(C)N(N)P(=S)(Oc2ccccc2)N1N
inactive: dose: 12.5 mg/kg/injection, schedule: Q01DX005 (ip), vehicle: saline with Tween-80 101 % of control | dose: 25.0 mg/kg/injection, schedule: Q01DX005 (ip), vehicle: saline with Tween-80 108 % of control | [11] 104 % of control and 111 % of control

CC1(C)CC[C@]2(C(=O)O)CC[C@]3(C)C(=CC[C@@H]4[C@@]5(C)C[C@H](O)[C@H](O)[C@@](C)(C(=O)O)[C@@H]5CC[C@]43C)[C@@H]2C1
inactive: dose: 1.1 mg/kg/injection, schedule: Q01DX005 (ip), vehicle: Klucel (hydroxypropylcellulose) (HPC) 91 % of control | dose: 2.12 mg/kg/injection, schedule: Q01DX005 (ip), vehicle: Klucel (hydroxypropylcellulose) (HPC) 89 % of control | dose: 4.25 mg/kg/injection, schedule: Q01DX005 (ip), vehicle: Klucel (hydroxypropylcellulose) (HPC) 100 % of control and 91 % of control | dose: 8.5 mg/kg/injection, schedule: Q01DX005 (ip), vehicle: Klucel (hydroxypropylcellulose) (HPC) 88 % of control and 90 % of control | dose: 17.0 mg/kg/injection, schedule: Q01DX005 (ip), vehicle: Klucel (hydroxypropylcellulose) (HPC) 92 % of control and 93 % of control | dose: 34.0 mg/kg/injection, schedule: Q01DX005 (ip), vehicle: Klucel (hydroxypropylcellulose) (HPC) 87 % of control

O=c1oc(-c2ccccc2)cc2ccccc12
inactive: [2] 100 % of control and 105 % of control | [3] 99 % of control and 109 % of control | [4] 99 % of control and 98 % of control | dose: 400.0 mg/kg/injection, schedule: Q01DX005 (ip), vehicle: Klucel (hydroxypropylcellulose) (HPC) 100 % of control and 93 % of control

Oc1c(Cl)c(Cl)c2ncccc2c1Cl
inactive: [11] 102 % of control | [12] 107 % of control | [13] 110 % of control
